Tested on: stratum corneum of viable human skin (abdominal or breast reduction plastic surgery)
Assay: Desquamating activity: decrease in cohesion of the stratum corneum, histological score on excised human skin maintained under survival conditions
Type: cell-based
Conditions: score 0-4; for Score 2: (mean ± sd, n = 6): Table 2, applied D0 and D1, analysed D2; for Score (mean ± sd, n = 6): Table 3 (white ginseng study)
Method: The study aims to detect the desquamating potential of the combination of active agents according to the invention in simplex solution by observation of the cohesion of the stratum corneum.
The keratolytic effect on excised skin maintained under survival conditions […] was evaluated. The study was carried out on viable human skin resulting from abdominal or breast reduction plastic surgery (6 donors). These skin fragments were placed in inserts, comprising a porous membrane ([…]), themselves positioned on culture wells containing a culture medium as described in Boisnic et al., Journal of Cosmetics and laser therapy, 2010:12:25-31.
The protocol consists in applying the test solutions to skin samples maintained under survival conditions. The products tested are applied in a proportion of 15 μl per 1 cm^2 sample and are not rinsed off. Application is carried out twice, at D0 and then, 24 hours later, at D1. The morphology of the stratum corneum is analysed 48 hours after the first application, at D2, on a biopsy.
The solutions applied are the following: • compound A (plant active agent according to the invention) alone at 0.1% and 0.5% by weight of active material in water, and • compound B alone at 0.3% by weight in water • combination of A at 0.1% and B at 0.3% by weight in water • combination of A at 0.5% and B at 0.3% by weight in water.
By way of comparison, no solution is applied to a sample, referred to as a control sample, and a solution of glycolic acid at 30% by weight in water is applied to another sample. 6 samples were used for each of the tests (controls, compound A and compound B and combinations of A and B).
The histological analysis of the horny layer is carried out on a skin section after staining with hemalaun-eosin (magnification 400). The decrease in the cohesion of the stratum corneum is expressed in the form of a score: • score 0: absence of modification • score 1: slight decrease • score 2: moderate decrease • score 3: large decrease • score 4: very large decrease with exfoliation
A paired Student test (p<0.05) was carried out in order to evaluate the significance of the difference with respect to the control.
The protocol described in Example 2 was reproduced by considering a plant active agent not in accordance with the invention, namely white ginseng which is devoid of ginsenoside Rg3. This active agent considered is the product Ginseng ES, distributed by the company Greentech.

Compound | Score 2: (mean ± sd, n = 6) (Compound B at 0.3% in H2O) | Score (mean ± sd, n = 6) (Compound B at 0.3% in H2O) | Score 2: (mean ± sd, n = 6) (Glycolic acid at 30% in H2O) | Score (mean ± sd, n = 6) (Glycolic acid at 30% in H2O)
CCCCCCCC(=O)c1ccc(O)c(C(=O)O)c1 [Compound B, 5-n-Octanoylsalicylic acid] | 2.14 ± 0.52 | 1.75 ± 0.19 | – | –
O=C(O)CO [Glycolic acid, glycolic acid] | – | – | 3.10 ± 0.12 | 2.14 ± 0.41
